Experimental findings from patent US20250230511A1, “METHODS AND REAGENTS FOR […] VECTOR NUCLEIC ACID PRODUCTS” (Sana Biotechnology, Inc., priority 2021, published 2025) are described below.

Assay [1] deals with VSV-G pseudotyped lentiviral vector (VG). It counts as cell-based.
For assay [2] the test system is unchanged. Type of assay: cell-based. The source holds these as a separate data set.

As for `Cc1ccnc2c1NC(=O)c1cccnc1N2C1CC1` [Nevirapine], the “determination of VCN based on assay of the DelU3 amplicon” value in assay [1] was “completely ablated”. Besides, the “determination of VCN based on assay of the WPRE amplicon” value in assay [2] is recorded as “not substantially impacted”.
